In ChEMBL document CHEMBL5113521, “Discovery of a Novel Oral Proteasome Inhibitor to Block NLRP3 Inflammasome Activation with Anti-inflammation Activity” (J Med Chem, 2022):
Calls of active or inactive are those of the source. No cut-off for these calls is given here.

Legend:
Mus musculus [1] = experiment: Anti-colitis activity against DSS-induced ulcerative colitis C57BL/6J mouse assessed as reduction in colon length decrease at 0.125 to 0.5 mg/kg, po administered every 72 hrs for 10 days; assay type: functional, organism-based; settings: dose 0.125-0.5 mg/kg, time 10.0 day
Mus musculus [2] = experiment: Anti-colitis activity against DSS-induced C57BL/6 mouse model assessed as suppression of DSS induced fecal occult blood at 0.125 to 0.5 mg/kg, po administered every 72 hrs for 10 days; assay type: functional, organism-based; settings: dose 0.125-0.5 mg/kg, time 10.0 day
[3] = target: T1, Apoptosis-associated speck-like protein containing a CARD (Mus musculus) (UniProt Q9EPB4); experiment: Inhibition of ASC oligomerization in LPS stimulated mouse J774A.1 cells preincubated for 1 hr followed by nigericin stimulation by immunoblot analysis; assay type: cell-based; settings: J774.A1, dose 15-60 nM, DDE = dose-dependent effect
T1 sequence (whole entry): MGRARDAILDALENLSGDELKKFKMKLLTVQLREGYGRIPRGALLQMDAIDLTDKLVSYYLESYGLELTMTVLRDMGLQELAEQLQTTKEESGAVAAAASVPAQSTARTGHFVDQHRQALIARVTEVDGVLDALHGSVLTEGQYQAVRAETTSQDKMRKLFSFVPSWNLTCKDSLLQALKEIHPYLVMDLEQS

[4] = target: NACHT, LRR and PYD domains-containing protein 3 (Mus musculus) (UniProt Q8R4B8); experiment: Inhibition of NLRP3 inflammasome activation in LPS-primed mouse J774.A1 cells assessed as reduction in IL-1beta secretion preincubated for 1 hr followed by nigericin stimulation and measured after 1 hr by ELISA; assay type: cell-based; settings: time 2.0 hrs, DDE = dose-dependent effect
HEK293 = experiment: Cytotoxicity against HEK293 cells at less than 20 uM incubated for 24 hrs; assay type: toxicity, cell-based; settings: human, hek293, 24 h
[5] = target: NLR family CARD domain-containing protein 4 (Mus musculus) (UniProt Q3UP24); experiment: Inhibition of NLRC4 inflammasome activation in LPS-primed mouse BMDM cells assessed as reduction in IL-1beta secretion at 7.5 to 60 nM preincubated for 1 hr followed by FLA-ST Ultrapure stimulation by ELISA; assay type: cell-based; settings: dose 7.5-60 nM
[6] = target: T2, Interferon-inducible protein AIM2 (Mus musculus) (UniProt Q91VJ1); experiment: Inhibition of AIM2 inflammasome activation in LPS-primed mouse BMDM cells assessed as reduction in IL-1beta secretion at 7.5 to 60 nM preincubated for 1 hr followed by FLA-ST Ultrapure stimulation by ELISA; assay type: cell-based; settings: dose 7.5-60 nM
T2 sequence (whole entry): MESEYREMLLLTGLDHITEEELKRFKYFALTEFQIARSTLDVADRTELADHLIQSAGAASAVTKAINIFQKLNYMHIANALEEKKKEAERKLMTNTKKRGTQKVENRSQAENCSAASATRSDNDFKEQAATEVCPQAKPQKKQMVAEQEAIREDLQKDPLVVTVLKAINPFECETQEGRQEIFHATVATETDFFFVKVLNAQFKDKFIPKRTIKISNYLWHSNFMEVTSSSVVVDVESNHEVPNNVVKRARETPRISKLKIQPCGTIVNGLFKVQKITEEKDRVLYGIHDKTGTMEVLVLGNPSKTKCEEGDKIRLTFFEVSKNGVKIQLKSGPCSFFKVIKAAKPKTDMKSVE

[7] = target: T2, Interferon-inducible protein AIM2 (Mus musculus); experiment: Inhibition of AIM2 inflammasome activation in LPS-primed mouse BMDM cells assessed as reduction in IL-1beta secretion at 7.5 to 60 nM preincubated for 1 hr followed by poly (dA/dT) stimulation by ELISA; assay type: cell-based; settings: dose 7.5-60 nM
[8] = target: NACHT, LRR and PYD domains-containing protein 3 (Mus musculus) (UniProt Q8R4B8); experiment: Inhibition of NLRP3 inflammasome activation in LPS-primed mouse J774.A1 cells assessed as inhibition of caspase-1 p20 subunit release in supernatant preincubated for 1 hr followed by nigericin stimulation measured after 1 hr by Western blot analysis; assay type: cell-based; settings: dose 7.5-60 nM, time 2.0 hrs, DDE = dose-dependent effect
J774.A1 = experiment: Inhibition of NF-kappaB in LPS treated mouse J774.A1 cells assessed as reduction in pro-IL-1beta expression at 7.5 to 60 nM incubated for 1 hr followed by LPS stimulation measured after 5 hrs by Western blot analysis; assay type: cell-based; settings: dose 7.5-60 nM, time 6.0 hrs
[9] = Half life in Sprague-Dawley rat at 0.5 mg/kg, iv measured upto 24 hrs by liquid chromatography tandem mass spectrometry; assay type: ADME, organism-based; settings: in vivo
[10] = Tmax in Sprague-Dawley rat at 0.5 mg/kg, iv measured upto 24 hrs by liquid chromatography tandem mass spectrometry; assay type: ADME, organism-based; settings: in vivo
[11] = Cmax in Sprague-Dawley rat at 0.5 mg/kg, iv measured upto 24 hrs by liquid chromatography tandem mass spectrometry; assay type: ADME, organism-based; set-up: time < 24 hrs, dose 0.5 mg/kg, route iv; settings: in vivo
[12] = Apparent volume of distribution in Sprague-Dawley rat at 0.5 mg/kg, iv measured upto 24 hrs by liquid chromatography tandem mass spectrometry; assay type: ADME, organism-based; settings: in vivo, read-out: Vz
[13] = Oral bioavailability in Sprague-Dawley rat at 1 mg/kg measured upto 24 hrs by liquid chromatography tandem mass spectrometry; assay type: ADME, organism-based; settings: in vivo
Mus musculus [14] = species on record: Mus musculus; experiment: Protection against DSS-induced C57BL/6 mouse ulcerative colitis model assessed as reduction in IL-1 beta in colon homogenate by ELISA; assay type: functional, organism-based; settings: dose 0.125-0.5 mg/kg, route po, DDE = dose-dependent effect

NACHT, LRR and PYD domains-containing protein 3 (Mus musculus), sequence (Q8R4B8 whole entry, the tested form may be a part): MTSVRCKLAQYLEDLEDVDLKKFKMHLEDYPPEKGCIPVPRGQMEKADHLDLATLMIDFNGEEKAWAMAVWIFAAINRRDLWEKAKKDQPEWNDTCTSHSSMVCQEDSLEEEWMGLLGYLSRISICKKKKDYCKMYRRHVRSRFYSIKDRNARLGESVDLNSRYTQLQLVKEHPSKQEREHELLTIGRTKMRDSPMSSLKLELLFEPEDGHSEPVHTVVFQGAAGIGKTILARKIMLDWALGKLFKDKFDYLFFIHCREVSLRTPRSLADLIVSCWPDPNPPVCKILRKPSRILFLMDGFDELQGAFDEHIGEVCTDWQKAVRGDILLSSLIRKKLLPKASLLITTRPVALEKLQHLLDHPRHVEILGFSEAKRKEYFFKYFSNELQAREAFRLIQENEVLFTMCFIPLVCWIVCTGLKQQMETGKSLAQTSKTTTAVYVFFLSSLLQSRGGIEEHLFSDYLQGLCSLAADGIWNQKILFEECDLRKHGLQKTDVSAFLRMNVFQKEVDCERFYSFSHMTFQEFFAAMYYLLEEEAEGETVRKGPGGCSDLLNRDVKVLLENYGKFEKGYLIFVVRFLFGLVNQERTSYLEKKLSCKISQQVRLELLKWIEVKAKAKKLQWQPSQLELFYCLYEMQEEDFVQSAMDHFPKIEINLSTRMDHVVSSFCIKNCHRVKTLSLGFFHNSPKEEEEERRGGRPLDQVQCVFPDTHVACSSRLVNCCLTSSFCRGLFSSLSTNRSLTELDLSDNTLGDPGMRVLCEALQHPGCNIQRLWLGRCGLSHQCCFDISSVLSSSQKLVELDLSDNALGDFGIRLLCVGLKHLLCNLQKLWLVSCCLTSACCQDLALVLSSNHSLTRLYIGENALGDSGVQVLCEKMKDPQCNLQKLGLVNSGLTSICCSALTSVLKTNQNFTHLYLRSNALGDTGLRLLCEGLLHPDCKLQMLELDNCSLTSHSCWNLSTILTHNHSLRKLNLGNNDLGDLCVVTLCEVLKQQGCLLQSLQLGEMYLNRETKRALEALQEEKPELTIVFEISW
NLR family CARD domain-containing protein 4 (Mus musculus), sequence (Q3UP24 whole entry, the tested form may be a part): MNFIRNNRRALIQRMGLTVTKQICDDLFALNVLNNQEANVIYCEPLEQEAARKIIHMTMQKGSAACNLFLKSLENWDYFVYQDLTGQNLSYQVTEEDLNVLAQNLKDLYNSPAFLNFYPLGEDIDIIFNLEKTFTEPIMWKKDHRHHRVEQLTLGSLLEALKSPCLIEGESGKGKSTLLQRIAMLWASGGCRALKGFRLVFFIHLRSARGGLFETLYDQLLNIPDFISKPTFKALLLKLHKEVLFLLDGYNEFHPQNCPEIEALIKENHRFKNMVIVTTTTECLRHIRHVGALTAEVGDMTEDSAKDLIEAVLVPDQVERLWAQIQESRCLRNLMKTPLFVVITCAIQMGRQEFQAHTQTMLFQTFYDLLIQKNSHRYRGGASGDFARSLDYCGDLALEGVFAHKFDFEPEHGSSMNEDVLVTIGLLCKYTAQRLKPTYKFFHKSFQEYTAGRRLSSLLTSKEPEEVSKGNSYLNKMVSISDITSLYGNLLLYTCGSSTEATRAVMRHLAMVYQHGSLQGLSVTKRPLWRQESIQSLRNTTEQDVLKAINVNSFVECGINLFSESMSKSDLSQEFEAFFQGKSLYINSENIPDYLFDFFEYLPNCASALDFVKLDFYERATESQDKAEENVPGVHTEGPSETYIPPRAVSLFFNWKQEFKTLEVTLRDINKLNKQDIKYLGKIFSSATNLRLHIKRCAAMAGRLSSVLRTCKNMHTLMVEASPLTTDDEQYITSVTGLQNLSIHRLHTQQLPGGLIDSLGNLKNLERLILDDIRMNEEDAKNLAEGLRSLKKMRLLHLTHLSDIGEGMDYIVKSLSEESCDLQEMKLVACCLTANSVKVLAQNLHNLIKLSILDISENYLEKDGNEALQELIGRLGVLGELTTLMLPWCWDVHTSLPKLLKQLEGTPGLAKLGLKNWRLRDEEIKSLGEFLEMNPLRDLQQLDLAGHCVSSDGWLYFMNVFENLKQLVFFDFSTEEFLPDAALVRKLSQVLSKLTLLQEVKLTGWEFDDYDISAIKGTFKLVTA

## CC(C)C[C@H](NC(=O)[C@H](Cc1ccccc1)NC(=O)c1c(F)cccc1F)B(O)O
Mus musculus [1]
  Activity: Active
Mus musculus [2]
  Activity: Active
[3]
  inhibition: Dde
[4]
  inhibition: Dde
HEK293
  Activity: Non-Toxic
[5]
  inhibition: Active
[6]
  inhibition: Active
[7]
  inhibition: Active
[8]
  inhibition: Dde
J774.A1
  inhibition: Active
[9]
  t1/2: 4.73 h
[10]
  Tmax: 4.8 min
[11]
  Cmax: 377 ng/mL
[12]
  Vd: 7.7 L/kg
[13]
  bioavailability: 48.1%
Mus musculus [14]
  Activity: Dde
